According to patent US8575143B2, “3-aryl-substituted quinazolones, and uses thereof” (Prolexys Pharmaceuticals, Inc., priority 2005, dated 2013):
pIC50: −log10 of the molar value. Like-named read-outs stand apart in the source and are kept apart here.

Legend:
tumor cells = experiment: Sytox primary screen, inhibition of growth of tumor cells; assay type: cell-based; settings: compound in DMSO, 48 hours exposure, Sytox read
Description: The ability of Compound 1, in DMSO, to inhibit the growth of tumor and normal cells was measured. The compound was assayed by the Sytox primary screen, a phenotypic assay which monitors alterations in cell survival-proliferation as a result of compound treatment. It was devised as high throughput method to identify compounds which specifically alter the growth potential of cells harboring the causative mutations found in cancer patients while not affecting the growth of normal cells. The assay relies upon an inexpensive, simple and reliable readout of a membrane impermeable fluorescent dye (Sytox, from Molecular Probes) which binds to nucleic acid. In healthy cells, no signal is detected because the cell's membrane is intact and the dye will not enter. However, if a cell's membrane is compromised as a result of apoptosis or necrosis, a fluorescent signal proportional to the number of similarly affected cells will be detected. By utilizing a two-step readout (final read in the presence of detergent to permit labeling of all cells), the assay can identify compounds which produce cytostasis, cytotoxicity and/or mitogenesis. The first read or “dead cell” read, provides an estimate of the toxicity of a given compound by indicating the number of dead or dying cells in the culture at the time of assay. […]

HT-1080 cells = experiment: Sytox assay, inhibition of growth of HT-1080 cells; assay type: cell-based; settings: Homo sapiens, 48 hours exposure
Description: The ability of Compound 1, in DMSO, to inhibit the growth of tumor and normal cells was measured. The compound was assayed by the Sytox primary screen, a phenotypic assay which monitors alterations in cell survival-proliferation as a result of compound treatment. It was devised as high throughput method to identify compounds which specifically alter the growth potential of cells harboring the causative mutations found in cancer patients while not affecting the growth of normal cells. The assay relies upon an inexpensive, simple and reliable readout of a membrane impermeable fluorescent dye (Sytox, from Molecular Probes) which binds to nucleic acid. In healthy cells, no signal is detected because the cell's membrane is intact and the dye will not enter. However, if a cell's membrane is compromised as a result of apoptosis or necrosis, a fluorescent signal proportional to the number of similarly affected cells will be detected. By utilizing a two-step readout (final read in the presence of detergent to permit labeling of all cells), the assay can identify compounds which produce cytostasis, cytotoxicity and/or mitogenesis. The first read or “dead cell” read, provides an estimate of the toxicity of a given compound by indicating the number of dead or dying cells in the culture at the time of assay. The second read or “total cell” read, captures both the cumulative effects of cytoxicity in reducing the size of the cell population as well as any cytostatic or anti-proliferative effects a test compound may exert on the cells in the test population in the absence of toxicity.
Cells were seeded overnight in 96 well plates at densities that without treatment would permit 95% confluence in the wells 72 hours later. The following day, the cells were exposed to test compounds in a dilution series for a period of 48 hours. Following this incubation period, the Sytox reagent was added to the cultures at the manufacturer's recommended concentration and the dead cell fluorescence read was taken. After completion of this measurement, the detergent Saponin was added to each well of the cultures to permeabilize the membranes allowing the Sytox reagent to enter every cell, thereby facilitating measurement of the total number of cells remaining in the culture.
The ability of various compounds of the invention, in DMSO, to inhibit the growth of HT-1080 cells was measured. The HT-1080 cell line used in these experiments was derived from a patient with fibrosarcoma and harbors an activating mutation in the N-ras gene at codon 12. The compound was assayed using the assay described in Example 3. The results of the assay are shown in the table below, where the activity corresponds to the following ranges: A—less than 10 nM, B—10-100 nM, C—100-1000 nM, D—1000-2000 nM, E—greater than 2000 nM.

[1] = IV maximum tolerated dose (MTD); settings: Nude Balb/c, mouse, in vivo, QD x 5 days, mice
HT-1080 xenografts = experiment: HT-1080 tumor xenograft, daily IV administration for 5 days; assay type: in vivo; settings: nude Balb/c mice, QD x 5 days
Description: The ability of compounds 10 and 25 to inhibit the growth of HT-1080 xenografts following daily, intravenous administration was examined using similar methods (described below). Compounds 10 and 25 were administered for 5 consecutive days and were evaluated at their respective IV MTD doses.
The HT-1080 cell line used in this xenograft study was derived from a patient with fibrosarcoma and harbors an activating mutation in the N-ras gene at codon 12. […] Robust tumor regression was observed when the compounds were administered at their respective MTD. No adverse clinical signs were observed
Nude Balb/c (Nu/Nu strain, Charles River Laboratories), female, 5-6 wks. old (˜22 g average body weight).
• A: Untreated Control, n=6 • B: Vehicle Control for Compound 10, QD×5 days, IV, n=6 • D: Compound 10 @ 25 mg/Kg (MTD), QD×5 days, IV, n=6 • E: Compound 10 @ 12.5 mg/Kg (½ MTD), QD×5 days, IV, n=6 Treatment Schedule: […]
Starting on Day 1, all animals were weighed, and tumor dimensions (L & W) were measured, every other day. […]
The resulting tumor volume values were averaged for each study group for each time point, and were then plotted against time. Variance was expressed as standard error of the mean (±SEM).

[2] = Sytox read, read-out: IC50, inhibition of proliferation of HT-1080 cells
[3] = compound in DMSO, Sytox assay of Example 3, read-out: Activity (inhibition of growth of HT-1080 cells)

CCOc1ccccc1-n1c(C(C)N2CCN(C(=O)COc3ccc(Cl)cc3)CC2)nc2cc(Cl)ccc2c1=O (centres unmarked) [Compound 1, 2-(1-(4-(2-(4-chlorophenoxy)acetyl)piperazin-1-yl)ethyl)-7-chloro-3-(2-ethoxyphenyl)quinazolin-4(3H)-one]
pIC50 (tumor cells): ~5.00

CCOc1ccccc1-n1c(CN2CCNCC2)nc2cccc(Cl)c2c1=O [Compound 2, 5-chloro-3-(2-ethoxyphenyl)-2-(piperazin-1-ylmethyl)quinazolin-4(3H)-one]
pIC50 (HT-1080 cells; [2]): 7.00
pIC50 (HT-1080 cells; [3]): 7.00 to 8.00

CCOc1cc([N+](=O)[O-])ccc1-n1c(CN2CCCNCC2)nc2ccccc2c1=O [Compound 3, 2-((1,4-diazepan-1-yl)methyl)-3-(2-ethoxy-4-nitrophenyl)quinazolin-4(3H)-one]
pIC50 (HT-1080 cells; [2]): 6.70
pIC50 (HT-1080 cells; [3]): 6.00 to 7.00

CCOc1ccccc1-n1c(C(C)N2CCCN(C)CC2)nc2cc(N)ccc2c1=O (centres unmarked) [Compound 10, 7-amino-3-(2-ethoxyphenyl)-2-(1-(4-methyl-1,4-diazepan-1-yl)ethyl)quinazolin-4(3H)-one]
MTD at 5 days [1]: 25 mg/kg
inhibition in growth of HT-1080 cell xenograft (HT-1080 xenografts): inhibition in growth
pIC50 (HT-1080 cells; [3]): > 8.00

CCOc1ccccc1-n1c(CN2CCCN(C)CC2)nc2cc(NCCOC)ccc2c1=O [Compound 11, 3-(2-ethoxyphenyl)-7-(2-methoxyethylamino)-2-((4-methyl-1,4-diazepan-1-yl)methyl)quinazolin-4(3H)-one]
pIC50 (HT-1080 cells; [3]): < 5.70

CCOc1ccccc1-n1c(C(C)N2CCCN(C)CC2)nc2cc([N+](=O)[O-])ccc2c1=O (centres unmarked) [Compound 12, 3-(2-ethoxyphenyl)-2-(1-(4-methyl-1,4-diazepan-1-yl)ethyl)-7-nitroquinazolin-4(3H)-one]
pIC50 (HT-1080 cells; [3]): 6.00 to 7.00

CN1CCCN(Cc2nc3cc(N)ccc3c(=O)n2-c2ccc(F)cc2Cl)CC1 [Compound 13, 7-amino-3-(2-chloro-4-fluorophenyl)-2-((4-methyl-1,4-diazepan-1-yl)methyl)quinazolin-4(3H)-one]
pIC50 (HT-1080 cells; [3]): < 5.70

Nc1ccc2c(=O)n(-c3ccc(F)cc3Cl)c(CN3CCNCC3)nc2c1 [Compound 14, 7-amino-3-(2-chloro-4-fluorophenyl)-2-(piperazin-1-ylmethyl)quinazolin-4(3H)-one]
pIC50 (HT-1080 cells; [3]): < 5.70

CCOc1ccccc1-n1c(CN2CCCN(C)CC2)nc2cc(NCCN3CCOCC3)ccc2c1=O [Compound 15, 3-(2-ethoxyphenyl)-2-((4-methyl-1,4-diazepan-1-yl)methyl)-7-(2-morpholinoethylamino)quinazolin-4(3H)-one]
pIC50 (HT-1080 cells; [3]): 6.00 to 7.00

CCOc1ccccc1-n1c(CN2CCCN(C)CC2)nc2cc(C(F)(F)F)ccc2c1=O [Compound 16, 3-(2-ethoxyphenyl)-2-((4-methyl-1,4-diazepan-1-yl)methyl)-7-(trifluoromethyl)quinazolin-4(3H)-one]
pIC50 (HT-1080 cells; [3]): 6.00 to 7.00

O=c1c2ccccc2nc(CN2CCNCC2)n1-c1c(F)cc(F)cc1Cl [Compound 17, 3-(2-chloro-4,6-difluorophenyl)-2-(piperazin-1-ylmethyl)quinazolin-4(3H)one]
pIC50 (HT-1080 cells; [3]): 6.00 to 7.00

CN1CCCN(Cc2nc3ccccc3c(=O)n2-c2c(F)cc(F)cc2Cl)CC1 [Compound 18, 3-(2-chloro-4,6-difluorophenyl)-2-((4-methyl-1,4-diazepan-1-yl)methyl)quinazolin-4(3H)-one]
pIC50 (HT-1080 cells; [3]): 6.00 to 7.00

CCOc1cc(F)ccc1-n1c(CN2CCCN(C)CC2)nc2cc(N)ccc2c1=O [Compound 19, 7-amino-3-(2-ethoxy-4-fluorophenyl)-2-((4-methyl-1,4-diazepan-1-yl)methyl)quinazolin-4(3H)-one]
pIC50 (HT-1080 cells; [3]): > 8.00

CN1CCCN(Cc2nc3ccccc3c(=O)n2-c2ccc(OC(F)(F)F)cc2Cl)CC1 [Compound 20, 3-(2-chloro-4-(trifluoromethoxy)phenyl)-2-((4-methyl-1,4-diazepan-1-yl)methyl)quinazolin-4(3H)-one]
pIC50 (HT-1080 cells; [3]): 7.00 to 8.00

O=c1c2ccccc2nc(CN2CCNCC2)n1-c1ccc(OC(F)(F)F)cc1Cl [Compound 21, 3-(2-chloro-4-(trifluoromethoxy)phenyl)-2-(piperazin-1-ylmethyl)quinazolin-4(3H)-one]
pIC50 (HT-1080 cells; [3]): 6.00 to 7.00

CN1CCCN(Cc2nc3cc(N)ccc3c(=O)n2-c2c(Cl)cccc2Cl)CC1 [Compound 22, 7-amino-3-(2,6-dichlorophenyl)-2-((4-methyl-1,4-diazepan-1-yl)methyl)quinazolin-4(3H)-one]
pIC50 (HT-1080 cells; [3]): 6.00 to 7.00

CCOc1ccccc1-n1c(CN2CCCN(C)CC2)nc2cc(F)ccc2c1=O [Compound 24, 3-(2-ethoxyphenyl)-7-fluoro-2-((4-methyl-1,4-diazepan-1-yl)methyl)quinazolin-4(3H)-one]
pIC50 (HT-1080 cells; [3]): 6.00 to 7.00

CCOc1ccccc1-n1c(CN2CCCN(C)CC2)nc2cc(N)ccc2c1=O [Compound 25, 7-amino-3-(2-ethoxyphenyl)-2-((4-methyl-1,4-diazepan-1-yl)methyl)quinazolin-4(3H)-one]
inhibition in growth of HT-1080 cell xenograft (HT-1080 xenografts): inhibition in growth
pIC50 (HT-1080 cells; [3]): > 8.00
